Laboratory results: PubChem BioAssay (NCI)
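Where inhibition never reached the appropriate level, the endpoint shown equals the highest concentration tested. Otherwise, values were interpolated linearly from a five-concentration, 48-hour dose response in 96-well plates. GI50 is the concentration that inhibits growth by half. TGI marks complete inhibition of growth.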

Legend:
Experiment in all cases: NCI tumour cell line growth inhibition, 48 h
CAKI-1 renal = system: CAKI-1 renal
HL-60(TB) leukemia = system: HL-60(TB) leukemia
K-562 leukemia = system: K-562 leukemia
KM12 colon = system: KM12 colon
M14 melanoma = system: M14 melanoma
NCI-H23 lung = system: NCI-H23 lung
NCI-H460 lung = system: NCI-H460 lung
RXF 393 renal = system: RXF 393 renal
SK-MEL-5 melanoma = system: SK-MEL-5 melanoma
UACC-257 melanoma = system: UACC-257 melanoma

SMILES | TGI (CAKI-1 renal) [µM] | TGI (HL-60(TB) leukemia) [µM] | TGI (K-562 leukemia) [µM] | TGI (KM12 colon) [µM] | TGI (M14 melanoma) [µM] | TGI (NCI-H23 lung) [µM] | TGI (NCI-H460 lung) [µM] | TGI (RXF 393 renal) [µM] | TGI (SK-MEL-5 melanoma) [µM] | TGI (UACC-257 melanoma) [µM] | GI50 (CAKI-1 renal) [µM] | GI50 (HL-60(TB) leukemia) [µM] | GI50 (K-562 leukemia) [µM] | GI50 (KM12 colon) [µM] | GI50 (M14 melanoma) [µM] | GI50 (NCI-H23 lung) [µM] | GI50 (NCI-H460 lung) [µM] | GI50 (RXF 393 renal) [µM] | GI50 (SK-MEL-5 melanoma) [µM] | GI50 (UACC-257 melanoma) [µM]
CCOC(=O)c1c(-c2ccccc2)[nH]c2ccccc2c1=O | > 100 | > 100 | > 100 | > 100 | > 100 | > 100 | > 100 | > 100 | > 100 | > 100 |  |  |  |  |  |  |  |  |  | 
c1ccc(COc2ccc(Nc3ncnc4ccc(-c5ccco5)cc34)cc2)cc1 | > 25 | 19.2 | > 25 | 14.7 | 19.9 | > 17.9 | > 25 | 8.61 | 6.79 | 24.4 | 2.19 | 7.03 | 9.74 | 6.09 | 7.31 | 5.54 | 2.84 | 3.4 | 2.96 | 7.85
CC1=C(C(=O)Nc2cc(F)c(F)cc2F)C(c2cccc([N+](=O)[O-])c2)C(C(=O)Nc2ccccc2C(F)(F)F)=C(C)N1 (stereo not given) | 49.6 | 37.1 | 36.7 | 47.4 | 55.5 | 46.5 | 43.6 | 46.2 | 63.9 | 59.3 |  |  |  |  |  |  |  |  |  | 
